Measurements reported in ChEMBL document CHEMBL3832061.

Tests used:
[1] = (§1) Pharmacokinetic parameters for Zolmitriptan following oral administration of Zolmitriptan tablets to subjects with different healthy conditions.; assay type: ADME, organism-based; conditions: human, in vivo
Homo sapiens = assay: as §1; assay type: ADME, organism-based; conditions: in vivo

With `CN(C)CCc1c[nH]c2ccc(C[C@H]3COC(=O)N3)cc12` [ZOLMITRIPTAN] the CL/F [1] was 31.5 mL/min/kg, the dose excreted ([1]; read-out: Excretion) was 8% and the Tmax (Homo sapiens) was 3 hr [middle of 4 runs]. It also gave a Vd (Homo sapiens) of 7 L/kg.
